Patent publication EP1824486B1, “BENZDIOXANE PIPERAZINE DERIVATIVES WITH A COMBINATION OF AFFINITY FOR DOPAMINE-D2 RECEPTORS AND SEROTONIN REUPTAKE SITES” (Solvay Pharmaceuticals B.V., priority 2004, dated 2006)

Columns and labels:
serotonin reuptake sites = target: T1, serotonin reuptake sites (Rattus norvegicus, UniProt P31652); experiment: In vitro affinity for serotonin reuptake sites ([3H]-paroxetine binding assay, Habert et al.); settings: average values from three independent experiments; read-out: in vitro affinity 5-HT reuptake binding Ki
T1 construct: from tissue; host or cells: rat cortical membranes (from the title of the cited method only)
Text: In vitro affinity for serotonin reuptake sites

dopamine D2 receptors = target: T2, dopamine D2 receptors (Mus musculus, UniProt P61168); experiment: Antagonism of apomorphine-induced climbing behaviour in mice (APO-climb); settings: po, read-out: in vivo activity Dopamine-D2 APO-climb* ED50 mg/kg po
T2 construct: antagonize apomorphine-induced climbing behaviour in mice; from tissue; host or cells: living mice (in vivo behavioural model)

serotonin reuptake = target: T3, serotonin reuptake (Mus musculus, UniProt Q60857); experiment: Potentiation of 5-HTP induced behaviour in mice; settings: po, read-out: in vivo activity 5-HT reuptake 5-HTP** ED50 mg/kg po
T3 construct: they potentiate 5-HTP induced behaviour in mice; from tissue; host or cells: living mice (in vivo behavioural model)
T3 sequence (Q60857 whole entry): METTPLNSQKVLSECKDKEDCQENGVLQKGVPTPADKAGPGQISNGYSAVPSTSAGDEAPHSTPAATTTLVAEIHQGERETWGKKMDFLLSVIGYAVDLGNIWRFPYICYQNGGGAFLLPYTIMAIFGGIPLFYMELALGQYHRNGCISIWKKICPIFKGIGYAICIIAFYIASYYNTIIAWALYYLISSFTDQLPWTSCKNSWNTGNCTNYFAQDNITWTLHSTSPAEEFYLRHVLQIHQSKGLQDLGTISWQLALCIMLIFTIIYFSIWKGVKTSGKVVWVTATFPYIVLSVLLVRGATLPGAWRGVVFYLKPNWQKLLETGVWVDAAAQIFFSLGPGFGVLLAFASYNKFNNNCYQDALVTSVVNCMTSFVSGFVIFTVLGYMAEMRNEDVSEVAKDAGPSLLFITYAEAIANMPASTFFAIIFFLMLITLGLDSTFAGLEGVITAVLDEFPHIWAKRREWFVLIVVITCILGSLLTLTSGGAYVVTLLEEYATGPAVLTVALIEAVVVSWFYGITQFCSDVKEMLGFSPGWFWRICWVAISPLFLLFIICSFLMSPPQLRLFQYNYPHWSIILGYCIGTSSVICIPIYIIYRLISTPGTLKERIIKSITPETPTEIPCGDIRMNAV

T1 sequence (P31652 whole entry): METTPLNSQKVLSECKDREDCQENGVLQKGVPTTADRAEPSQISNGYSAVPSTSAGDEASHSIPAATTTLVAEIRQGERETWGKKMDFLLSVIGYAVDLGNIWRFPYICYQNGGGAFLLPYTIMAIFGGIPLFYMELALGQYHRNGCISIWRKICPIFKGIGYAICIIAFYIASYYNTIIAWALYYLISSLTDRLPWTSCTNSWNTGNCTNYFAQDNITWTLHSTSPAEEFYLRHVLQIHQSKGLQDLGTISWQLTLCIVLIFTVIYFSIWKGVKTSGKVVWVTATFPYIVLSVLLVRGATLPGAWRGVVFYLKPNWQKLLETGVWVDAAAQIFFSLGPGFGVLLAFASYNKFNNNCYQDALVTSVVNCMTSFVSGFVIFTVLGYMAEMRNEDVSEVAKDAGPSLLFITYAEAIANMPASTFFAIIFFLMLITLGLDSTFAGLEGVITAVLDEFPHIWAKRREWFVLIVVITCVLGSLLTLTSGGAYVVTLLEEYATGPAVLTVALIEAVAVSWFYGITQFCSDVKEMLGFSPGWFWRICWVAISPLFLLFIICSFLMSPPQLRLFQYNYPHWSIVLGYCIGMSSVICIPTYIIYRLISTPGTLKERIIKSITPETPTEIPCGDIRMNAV
T2 sequence (P61168 whole entry): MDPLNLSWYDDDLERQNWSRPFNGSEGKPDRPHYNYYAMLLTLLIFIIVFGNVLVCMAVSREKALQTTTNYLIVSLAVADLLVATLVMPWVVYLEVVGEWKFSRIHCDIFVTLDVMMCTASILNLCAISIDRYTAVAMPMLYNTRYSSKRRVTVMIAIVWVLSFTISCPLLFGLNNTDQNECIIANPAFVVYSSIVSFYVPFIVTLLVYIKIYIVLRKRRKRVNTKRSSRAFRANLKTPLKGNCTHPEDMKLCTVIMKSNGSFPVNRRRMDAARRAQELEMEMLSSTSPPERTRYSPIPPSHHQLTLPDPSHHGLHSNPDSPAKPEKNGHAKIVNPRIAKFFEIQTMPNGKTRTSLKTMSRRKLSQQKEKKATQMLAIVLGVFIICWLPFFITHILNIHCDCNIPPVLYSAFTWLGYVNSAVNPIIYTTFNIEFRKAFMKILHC

Row | Ki (serotonin reuptake sites) | ED50 (dopamine D2 receptors) | ED50 (serotonin reuptake) | Structure (SMILES)
1 | 7.9 ± 2.8 nM |  |  | Clc1cccc2c(CCCN3CCN(c4cccc5c4OCCO5)CC3)c[nH]c12 [5l, 3-{3-[4-(2,3-Dihydro-benzo[1,4]dioxin-5-yl)-piperazin-1-yl]-propyl}-7-chloro-1H-indole]
2 | 0.4 ± 0.1 nM | 10 mg/kg | 22 mg/kg | c1cc2c(c(N3CCN(CCCc4c[nH]c5ccccc45)CC3)c1)OCCO2 [compound 5b, 3-{3-[4-(2,3-Dihydro-benzo[1,4]dioxin-5-yl)-piperazin-1-yl]-propyl}-1H-indole]
3 | 37 ± 3 nM |  |  | c1cc2c(c(N3CCN(CCCCCc4c[nH]c5ccccc45)CC3)c1)OCCO2 [compound 5c, 3-{5-[4-(2,3-Dihydro-benzo[1,4]dioxin-5-yl)-piperazin-1-yl]-pentyl}-1H-indole]
4 | 0.4 ± 0.1 nM | 13 mg/kg | 32 mg/kg | Fc1cccc2[nH]cc(CCCN3CCN(c4cccc5c4OCCO5)CC3)c12 [compound 5d, 3-{3-[4-(2,3-Dihydro-benzo[1,4]dioxin-5-yl)-piperazin-1-yl]-propyl}-4-fluoro-1H-indole]
5 | 1.6 ± 0.2 nM | 9 mg/kg |  | Fc1ccc2c(CCCN3CCN(c4cccc5c4OCCO5)CC3)c[nH]c2c1 [compound 5f, 3-{3-[4-(2,3-Dihydro-benzo[1,4]dioxin-5-yl)-piperazin-1-yl]-propyl}-6-fluoro-1H-indole]
6 | 2 ± 0.7 nM | 4.5 mg/kg | 86 mg/kg | Clc1ccc2c(CCCN3CCN(c4cccc5c4OCCO5)CC3)c[nH]c2c1 [compound 5k, 3-{3-[4-(2,3-Dihydro-benzo[1,4]dioxin-5-yl)-piperazin-1-yl]-propyl}-6-chloro-1H-indole]
7 | 12 ± 5 nM |  |  | Cc1cccc2c(CCCN3CCN(c4cccc5c4OCCO5)CC3)c[nH]c12 [compound 5n, 3-{3-[4-(2,3-Dihydro-benzo[1,4]dioxin-5-yl)-piperazin-1-yl]-propyl}-7-methyl-1H-indole]
8 | 1.1 ± 0.3 nM |  |  | c1cc2c(c(N3CCN(CCCc4c[nH]c5ccccc45)CC3)c1)CCCO2 [compound 14, 3-[3-(4-chroman-5-yl-piperazine-1-yl)-propyl]-1H-indole]

Row | Structure (SMILES) | Ki (serotonin reuptake sites) | ED50 (dopamine D2 receptors) | ED50 (serotonin reuptake)
9 | c1cc2c(c(N3CCN(Cc4c[nH]c5ccccc45)CC3)c1)OCCO2 [compound 5a, 3-[4-(2,3-Dihydro-benzo[1,4]dioxin-5-yl)-piperazin-1-yl-methyl]-1H-indole] | 176 ± 59 nM |  | 
10 | Fc1ccc2[nH]cc(CCCN3CCN(c4cccc5c4OCCO5)CC3)c2c1 [compound 5e, 3-{3-[4-(2,3-Dihydro-benzo[1,4]dioxin-5-yl)-piperazin-1-yl]-propyl}-5-fluoro-1H-indole] | 0.3 ± 0.1 nM |  | 2 mg/kg
11 | Fc1cccc2c(CCCN3CCN(c4cccc5c4OCCO5)CC3)c[nH]c12 [compound 5g, 3-{3-[4-(2,3-Dihydro-benzo[1,4]dioxin-5-yl)-piperazin-1yl]-propyl}-7-fluoro-1H-indole] | 0.6 ± 0.1 nM |  | 28.4 mg/kg
12 | COc1ccc2[nH]cc(CCCN3CCN(c4cccc5c4OCCO5)CC3)c2c1 [compound 5h, 3-{3-[4-(2,3-Dihydro-benzo[1,4]dioxin-5-yl)-piperazin-1-yl]-propyl}-5-methoxy-1H-indole] | 14 ± 4 nM |  | 
13 | Clc1cccc2[nH]cc(CCCN3CCN(c4cccc5c4OCCO5)CC3)c12 [compound 5i, 3-{3-[4-(2,3-Dihydro-benzo[1,4]dioxin-5-yl)-piperazin-1-yl]-propyl}-4-chloro-1H-indole] | 1.4 ± 0.4 nM |  | 
